# Reference: US11020395B2, “Cycloalkyl substituted triazole compounds as agonists of the APJ receptor” (AMGEN INC., priority 2016, dated 2021)
# pEC50: −log10 of the molar value.
# Molecular target: human APJ receptor (Homo sapiens (Human), UniProt P35414)
# Assay: [35S]GTPγS binding assay on membranes from CHO cells stably expressing human APJ receptor
# Assay type: biochemical
# Conditions: Activity hAPJ SPA EC50 IP, [35S]GTPγS SPA
# Method in brief: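 Agonist-stimulated [35S]GTPγS binding measured on membranes of a stable human APJ CHO line, 90 min at room temperature, with GDP, MgCl2 and NaCl levels optimized beforehand. Means of independent runs fitted by non-linear regression to give EC50.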
# Sequence of human APJ receptor (P35414 whole entry): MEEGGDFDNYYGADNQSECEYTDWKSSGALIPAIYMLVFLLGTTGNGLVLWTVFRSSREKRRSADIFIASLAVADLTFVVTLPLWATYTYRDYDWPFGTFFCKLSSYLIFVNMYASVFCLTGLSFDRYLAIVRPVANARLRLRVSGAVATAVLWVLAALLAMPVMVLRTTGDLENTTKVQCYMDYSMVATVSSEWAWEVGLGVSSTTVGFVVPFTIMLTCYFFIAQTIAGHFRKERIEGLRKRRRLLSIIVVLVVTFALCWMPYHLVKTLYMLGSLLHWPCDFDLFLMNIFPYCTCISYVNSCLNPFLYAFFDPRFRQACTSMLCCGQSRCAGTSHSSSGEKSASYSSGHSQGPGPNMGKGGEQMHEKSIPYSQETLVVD
row,Compound,pEC50
1,"COc1cccc(OC)c1-n1c(NS(=O)(=O)[C@@H](C)[C@H](OC)c2ncc(C)cn2)nnc1C1CC1 [Example 16.0, (1R,2S)—N-(5-Cyclopropyl-4-(2,6-dimethoxyphenyl)-4H-1,2,4-triazol-3-yl)-1-methoxy-1-(5-methyl-2-pyrimidinyl)-2-propanesulfonamide]",7.66

# Same assay, conditions: [35S]GTPγS SPA, read-out: Activity hAPJ SPA EC50 IP
row,Compound,pEC50
1,"COc1cccc(OC)c1-n1c(NS(=O)(=O)[C@@H](C)[C@H](OC)c2ncc(Cl)cn2)nnc1[C@H]1CC[C@H](OC)C1 (single isomer, unassigned) [Example 215.0]",7.18
2,"COc1cccc(OC)c1-n1c(NS(=O)(=O)[C@@H](C)[C@@H](OC(C)C)c2ncc(C)cn2)nnc1[C@@H]1CCC(=O)C1 (single isomer, unassigned) [Example 229.0, (1S,2S)-N-(4-(2,6-dimethoxyphenyl)-5-((R)-3-oxocyclopentyl)-4H-1,2,4-triazol-3-yl)-1-isopropoxy-1-(5-methylpyrimidin-2-yl)propane-2-sulfonamide or (1S,2S)-N-(4-(2,6-dimethoxyphenyl)-5-((S)-3-oxocyclopentyl)-4H-1,2,4-triazol-3-yl)-1-isopropoxy-1-(5-methylpyrimidin-2-yl)propane-2-sulfonamide]",7.52
3,"COc1cccc(OC)c1-n1c(NS(=O)(=O)[C@@H](C)[C@@H](OC(C)C)c2ncc(C)cn2)nnc1[C@@H]1CCC(=O)C1 (single isomer, unassigned) [Example 230.0, (1S,2S)-N-(4-(2,6-dimethoxyphenyl)-5-((R)-3-oxocyclopentyl)-4H-1,2,4-triazol-3-yl)-1-isopropoxy-1-(5-methylpyrimidin-2-yl)propane-2-sulfonamide or (1S,2S)-N-(4-(2,6-dimethoxyphenyl)-5-((S)-3-oxocyclopentyl)-4H-1,2,4-triazol-3-yl)-1-isopropoxy-1-(5-methylpyrimidin-2-yl)propane-2-sulfonamide]",6.72
4,"COc1cccc(OC)c1-n1c(NS(=O)(=O)[C@@H](C)[C@@H](OC(C)C)c2ncc(C)cn2)nnc1[C@H]1C[C@@](C)(O)C1 (single isomer, unassigned) [Example 231.0, (1S,2S)-N-(4-(2,6-dimethoxyphenyl)-5-(trans-3-hydroxy-3-methylcyclobutyl)-4H-1,2,4-triazol-3-yl)-1-(5-methyl-2-pyrimidinyl)-1-(2-propanyloxy)-2-propanesulfonamide or (1S,2S)-N-(4-(2,6-dimethoxyphenyl)-5-(cis-3-hydroxy-3-methylcyclobutyl)-4H-1,2,4-triazol-3-yl)-1-(5-methyl-2-pyrimidinyl)-1-(2-propanyloxy)-2-propanesulfonamide]",6.66
5,"COc1cccc(OC)c1-n1c(NS(=O)(=O)[C@@H](C)[C@@H](OC(C)C)c2ncc(C)cn2)nnc1[C@@H]1CCC[C@@H]1OC (single isomer, unassigned) [Example 233.0]",7.03
6,"COc1cccc(OC)c1-n1c(NS(=O)(=O)[C@@H](C)[C@@H](OC(C)C)c2ncc(C)cn2)nnc1[C@@H]1CCC[C@@H]1OC (single isomer, unassigned) [Example 234.0]",7.92
7,"COc1cccc(OC)c1-n1c(NS(=O)(=O)[C@@H](C)[C@@H](OC(C)C)c2ncc(C)cn2)nnc1[C@@H]1CCC[C@@H]1OC (single isomer, unassigned) [Example 235.0]",6.82
8,"COc1ncnc(OC)c1-n1c(NS(=O)(=O)[C@@H](C)[C@H](OC)c2ncc(Cl)cn2)nnc1[C@H]1C[C@](C)(F)C1 (single isomer, unassigned) [Example 237.0, (1R,2S)-1-(5-chloropyrimidin-2-yl)-N-(4-(4,6-dimethoxypyrimidin-5-yl)-5-((1s,3S)-3-fluoro-3-methylcyclobutyl)-4H-1,2,4-triazol-3-yl)-1-methoxypropane-2-sulfonamide or (1R,2S)-1-(5-chloropyrimidin-2-yl)-N-(4-(4,6-dimethoxypyrimidin-5-yl)-5-((1r,3S)-3-fluoro-3-methylcyclobutyl)-4H-1,2,4-triazol-3-yl)-1-methoxypropane-2-sulfonamide]",7.52
9,COc1ncnc(OC)c1-n1c(NS(=O)(=O)[C@@H](C)[C@H](C)c2ncc(Cl)cn2)nnc1[C@@H]1CC[C@@H]1C(F)F (stereo in doubt) [Example 166.0],7.70
10,"COc1ncnc(OC)c1-n1c(NS(=O)(=O)[C@@H](C)[C@H](C)c2ncc(C)cn2)nnc1C1CC1 [Example 3.0, (2S,3R)-N-(5-cyclopropyl-4-(4,6-dimethoxy-5-pyrimidinyl)-4H-1,2,4-triazol-3-yl)-3-(5-methyl-2-pyrimidinyl)-2-butanesulfonamide]",7.25
11,"COc1ncnc(OC)c1-n1c(NS(=O)(=O)[C@@H](C)[C@H](C)c2ncc(C)cn2)nnc1C1CCC1 [Example 4.0, (2S,3R)-N-(5-cyclobutyl-4-(4,6-dimethoxy-5-pyrimidinyl)-4H-1,2,4-triazol-3-yl)-3-(5-methyl-2-pyrimidinyl)-2-butanesulfonamide]",7.68
12,"COc1ncnc(OC)c1-n1c(NS(=O)(=O)[C@@H](C)[C@H](C)c2ncc(C)cn2)nnc1C1CCCCC1 [Example 5.0, (2S,3R)-N-(5-cyclohexyl-4-(4,6-dimethoxy-5-pyrimidinyl)-4H-1,2,4-triazol-3-yl)-3-(5-methyl-2-pyrimidinyl)-2-butanesulfonamide]",8.03
13,"COc1ncnc(OC)c1-n1c(NS(=O)(=O)[C@@H](C)[C@H](OC)c2ncc(Cl)cn2)nnc1C1CCCCC1 [Example 6.0, (1R,2S)-1-(5-chloro-2-pyrimidinyl)-N-(5-cyclohexyl-4-(4,6-dimethoxy-5-pyrimidinyl)-4H-1,2,4-triazol-3-yl)-1-methoxy-2-propanesulfonamide]",8.12
14,"COc1ncnc(OC)c1-n1c(NS(=O)(=O)[C@@H](C)[C@H](OC)c2ncc(Cl)cn2)nnc1C1CCC1 [Example 7.0, (1R,2S)-1-(5-chloro-2-pyrimidinyl)-N-(5-cyclobutyl-4-(4,6-dimethoxy-5-pyrimidinyl)-4H-1,2,4-triazol-3-yl)-1-methoxy-2-propanesulfonamide]",7.18
15,"COc1cccc(OC)c1-n1c(NS(=O)(=O)[C@@H](C)[C@H](C)c2ncc(C)cn2)nnc1C1CCCC1 [Example 17.0, (2S,3R)-N-(5-cyclopentyl-4-(2,6-dimethoxyphenyl)-4H-1,2,4-triazol-3-yl)-3-(5-methylpyrimidin-2-yl)butane-2-sulfonamide]",8.96
16,"COc1ncnc(OC)c1-n1c(NS(=O)(=O)[C@@H](C)[C@H](C)c2ncc(C)cn2)nnc1C1CCCC1 [Example 18.0, (2S,3R)-N-(5-cyclopentyl-4-(4,6-dimethoxypyrimidin-5-yl)-4H-1,2,4-triazol-3-yl)-3-(5-methylpyrimidin-2-yl)butane-2-sulfonamide]",8.68
17,"COc1ncnc(OC)c1-n1c(NS(=O)(=O)[C@@H](C)[C@H](OC)c2ncc(Cl)cn2)nnc1C1CCCC1 [Example 19.0, (1R,2S)-1-(5-chloropyrimidin-2-yl)-N-(5-cyclopentyl-4-(4,6-dimethoxypyrimidin-5-yl)-4H-1,2,4-triazol-3-yl)-1-methoxypropane-2-sulfonamide]",8.96
18,"COc1ncnc(OC)c1-n1c(NS(=O)(=O)[C@@H](C)[C@H](OC)c2ncc(Cl)cn2)nnc1C1CC1 [Example 24.0, (1R,2S)-1-(5-chloropyrimidin-2-yl)-N-(5-cyclopropyl-4-(4,6-dimethoxypyrimidin-5-yl)-4H-1,2,4-triazol-3-yl)-1-methoxypropane-2-sulfonamide]",7.96
19,"COc1ncnc(OC)c1-n1c(NS(=O)(=O)[C@@H](C)[C@H](OC)c2cnc(C)cn2)nnc1C1CCC1 [Example 82.0, (1R,2S)-N-(5-cyclobutyl-4-(4,6-dimethoxy-5-pyrimidinyl)-4H-1,2,4-triazol-3-yl)-1-methoxy-1-(5-methyl-2-pyrazinyl)-2-propanesulfonamide]",7.30
20,"COc1ncnc(OC)c1-n1c(NS(=O)(=O)[C@@H](C)[C@@H](OC(C)C)c2ncc(C)cn2)nnc1C1CCC1 [Example 83.0, (1S,2S)-N-(5-cyclobutyl-4-(4,6-dimethoxy-5-pyrimidinyl)-4H-1,2,4-triazol-3-yl)-1-(5-methyl-2-pyrimidinyl)-1-(2-propanyloxy)-2-propanesulfonamide]",8.22
21,"COc1ncnc(OC)c1-n1c(NS(=O)(=O)[C@@H](C)[C@H](C)c2ncc(F)cn2)nnc1C1CCC1 [Example 84.0, (2S,3R)-N-(5-cyclobutyl-4-(4,6-dimethoxy-5-pyrimidinyl)-4H-1,2,4-triazol-3-yl)-3-(5-fluoro-2-pyrimidinyl)-2-butanesulfonamide]",7.97
22,"COc1ncnc(OC)c1-n1c(NS(=O)(=O)[C@@H](C)[C@H](C)c2ncc(Cl)cn2)nnc1C1CCC1 [Example 85.0, (2S,3R)-3-(5-chloro-2-pyrimidinyl)-N-(5-cyclobutyl-4-(4,6-dimethoxy-5-pyrimidinyl)-4H-1,2,4-triazol-3-yl)-2-butanesulfonamide]",8.77
23,"COc1ncnc(OC)c1-n1c(NS(=O)(=O)[C@@H](C)[C@@H](OC(C)C)c2cnc(C)cn2)nnc1C1CCC1 [Example 86.0, (1S,2S)-N-(5-cyclobutyl-4-(4,6-dimethoxy-5-pyrimidinyl)-4H-1,2,4-triazol-3-yl)-1-(5-methyl-2-pyrazinyl)-1-(2-propanyloxy)-2-propanesulfonamide]",7.44
24,"COc1ncnc(OC)c1-n1c(NS(=O)(=O)[C@@H](C)[C@H](C)c2ccc(Cl)cn2)nnc1C1CCC1 [Example 87.0, (2S,3R)-3-(5-chloro-2-pyridinyl)-N-(5-cyclobutyl-4-(4,6-dimethoxy-5-pyrimidinyl)-4H-1,2,4-triazol-3-yl)-2-butanesulfonamide]",8.70
25,"COc1ncnc(OC)c1-n1c(NS(=O)(=O)[C@@H](C)[C@H](C)c2cnc(C)cn2)nnc1C1CCC1 [Example 88.0, (2S,3R)-N-(5-cyclobutyl-4-(4,6-dimethoxy-5-pyrimidinyl)-4H-1,2,4-triazol-3-yl)-3-(5-methyl-2-pyrazinyl)-2-butanesulfonamide]",7.38
